Reference: the supplement of paper PMC10307832

Key:
Experiment in all cases: relative viability (nuclei count vs DMSO), 5 days (fraction); higher = more cells survive
Bortezomib + Lapatinib = compound: CC(C)C[C@H](NC(=O)[C@H](Cc1ccccc1)NC(=O)c1cnccn1)B(O)O [Bortezomib] + CS(=O)(=O)CCNCc1ccc(-c2ccc3ncnc(Nc4ccc(OCc5cccc(F)c5)c(Cl)c4)c3c2)o1 [Lapatinib] (partner 2 µM)
How it was run: (§1)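 Five library-drug doses in √10 steps were combined with a fixed anchor-drug dose, or a single drug was given alone, by pin tool to lung cancer cell lines in 1536-well plates the day after seeding. Nuclei were stained and counted after 5 days. Relative viability is the nuclei count in treated wells over that in vehicle wells, taken as the median of duplicate plates.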

Bortezomib + Vorinostat = compound: CC(C)C[C@H](NC(=O)[C@H](Cc1ccccc1)NC(=O)c1cnccn1)B(O)O [Bortezomib] + O=C(CCCCCCC(=O)Nc1ccccc1)NO [Vorinostat] (partner 1 µM)
How it was run: as §1

[1] = compound: CC1=CC(=NN1)NC2=CC(=NC(=N2)/C=C/C3=CC=CC=C3)N4CCN(CC4)C + Nc1ncn([C@H]2C[C@H](O)[C@@H](CO)O2)c(=O)n1 [Decitabine] (partner 2 µM)
How it was run: as §1

Obatoclax + Lapatinib = compound: COC1=CC(c2cc3ccccc3[nH]2)=N/C1=C\c1[nH]c(C)cc1C [Obatoclax] + CS(=O)(=O)CCNCc1ccc(-c2ccc3ncnc(Nc4ccc(OCc5cccc(F)c5)c(Cl)c4)c3c2)o1 [Lapatinib] (partner 2 µM)
How it was run: as §1

| Cell Line | relative viability (Bortezomib + Lapatinib; first compound 0.0002 µM) | relative viability (Bortezomib + Lapatinib; first compound 0.000632 µM) | relative viability (Bortezomib + Lapatinib; first compound 0.002 µM) | relative viability (Bortezomib + Lapatinib; first compound 0.006325 µM) | relative viability (Bortezomib + Lapatinib; first compound 0.02 µM) | relative viability (Bortezomib + Vorinostat; first compound 0.0002 µM) | relative viability (Bortezomib + Vorinostat; first compound 0.000632 µM) | relative viability (Bortezomib + Vorinostat; first compound 0.002 µM) | relative viability (Bortezomib + Vorinostat; first compound 0.006325 µM) | relative viability (Bortezomib + Vorinostat; first compound 0.02 µM) | relative viability ([1]; first compound 0.08 µM) | relative viability ([1]; first compound 0.253 µM) | relative viability ([1]; first compound 0.8 µM) | relative viability ([1]; first compound 2.53 µM) | relative viability ([1]; first compound 8 µM) | relative viability (Obatoclax + Lapatinib; first compound 0.01 µM) | relative viability (Obatoclax + Lapatinib; first compound 0.03162 µM) | relative viability (Obatoclax + Lapatinib; first compound 0.1 µM) | relative viability (Obatoclax + Lapatinib; first compound 0.3162 µM) | relative viability (Obatoclax + Lapatinib; first compound 1 µM) |
| --- | --- | --- | --- | --- | --- | --- | --- | --- | --- | --- | --- | --- | --- | --- | --- | --- | --- | --- | --- | --- |
| RERF-LC-KJ | 0.82 | 0.91 | 0.846 | 0.653 | 0.242 | 0.661 | 0.726 | 0.624 | 0.463 | 0.219 | 0.73 | 0.677 | 0.695 | 0.272 | 0.242 | 0.837 | 0.832 | 0.843 | 0.831 | 0.859 |
| NCI-H1755 | 0.991 | 0.853 | 1.04 | 0.48 | 0.155 | 0.813 | 0.644 | 0.748 | 0.245 | 0.208 | 0.707 | 0.65 | 0.733 | 0.663 | 0.428 | 1.04 | 1.03 | 0.81 | 1.07 | 0.995 |
| NCI-H2170 | 0.253 | 0.266 | 0.306 | 0.266 | 0.2 | 0.746 | 0.722 | 0.972 | 0.173 | 0.121 | 0.452 | 0.51 | 0.467 | 0.373 | 0.251 | 0.281 | 0.247 | 0.304 | 0.253 | 0.306 |
| NCI-H2126 | 0.762 | 0.757 | 0.762 | 0.727 | 0.595 | 0.693 | 0.875 | 0.751 | 0.641 | 0.478 | 0.602 | 0.595 | 0.55 | 0.561 | 0.27 | 0.736 | 0.733 | 0.809 | 0.739 | 0.802 |
| EPLC-272H |  |  | 1.03 | 0.671 | 0.167 | 0.333 | 0.4 | 0.0774 | 0.0603 | 0.0567 | 0.345 | 0.373 | 0.36 | 0.245 | 0.163 | 0.942 | 0.909 | 0.458 | 0.913 | 0.883 |
| NCI-H1975 | 0.893 | 0.839 | 0.18 | 0.105 | 0.14 | 0.661 | 0.655 | 0.154 | 0.123 | 0.135 | 0.377 | 0.406 | 0.344 | 0.314 | 0.154 | 1.01 | 0.823 | 0.649 | 0.825 | 0.341 |
| NCI-H3122 | 0.943 | 1.01 | 1.01 | 0.902 | 0.202 | 0.993 | 1.07 | 1.46 | 0.515 | 0.108 | 0.372 | 0.364 | 0.46 | 0.379 | 0.298 | 0.987 | 1.05 | 0.964 | 1.03 | 1.03 |
| COR-L 105 | 0.358 | 0.354 | 0.334 | 0.344 | 0.349 | 0.846 | 0.306 | 0.824 | 0.276 | 0.271 | 0.549 | 0.847 | 0.624 | 0.425 | 0.235 | 0.368 | 0.318 | 0.369 | 0.294 | 0.252 |
| BEN | 0.72 | 0.74 | 0.61 | 0.339 | 0.114 | 0.559 | 0.586 | 0.558 | 0.509 | 0.317 | 0.633 | 0.835 | 0.706 | 0.381 | 0.337 | 0.726 | 0.696 | 0.305 | 0.792 | 0.698 |
| NCI-H1915 | 0.94 | 0.944 | 0.932 | 0.973 | 0.0577 | 0.514 | 0.531 | 0.555 | 0.286 | 0.0313 | 0.241 | 0.273 | 0.261 | 0.238 | 0.168 | 1.03 | 0.879 | 0.852 | 0.978 | 0.925 |
| NCI-H1650 | 0.279 | 0.482 | 0.154 | 0.17 | 0.181 | 0.575 | 0.58 | 0.151 | 0.139 | 0.155 | 0.333 | 0.454 | 0.389 | 0.297 | 0.113 | 0.849 | 0.657 | 0.698 | 0.418 | 0.302 |
| NCI-H2009 | 0.583 | 0.812 | 0.968 | 0.0615 | 0.0663 | 0.745 | 0.735 | 0.703 | 0.0608 | 0.0437 | 0.357 | 0.377 | 0.444 | 0.282 | 0.151 | 0.92 | 1 | 0.447 | 0.234 | 0.222 |
| COR-L23 | 0.814 | 1.1 | 0.771 | 0.0607 | 0.0542 | 0.474 | 0.446 | 0.192 | 0.0554 | 0.0587 | 0.511 | 0.451 | 0.392 | 0.125 | 0.113 | 0.954 | 0.957 | 0.714 | 0.254 | 0.199 |
| NCI-H460 | 0.879 | 0.975 | 1.03 | 0.0212 | 0.014 | 0.668 | 0.678 | 0.857 | 0.0257 | 0.0172 | 0.531 | 0.522 | 0.466 | 0.0534 | 0.0287 | 1 | 1.06 | 0.806 | 0.0507 | 0.0208 |
| HCC-827 | 0.217 | 0.183 | 0.187 | 0.222 | 0.15 | 0.802 | 0.883 | 0.799 | 0.814 | 0.182 | 0.196 | 0.353 | 0.337 | 0.285 | 0.189 | 0.183 | 0.195 | 0.226 | 0.229 | 0.271 |
| NCI-H322M | 0.573 |  | 0.523 | 0.541 | 0.393 | 0.841 | 0.696 | 0.826 | 0.393 | 0.491 | 0.82 | 0.719 | 0.675 | 0.587 | 0.298 | 0.59 | 0.505 | 0.763 | 0.608 | 0.546 |
